Experimental data from ChEMBL document CHEMBL6087428, “Discovery of potent and selective factor XIa inhibitors incorporating triazole-based benzoic acid as novel P2' fragments: Molecular dynamics simulations and anticoagulant activity” (Eur J Med Chem, 2025).

Experiments:
[1] = molecular target: T1, Coagulation factor XI (Homo sapiens, UniProt P03951); test: Inhibition of human Factor XIa using Boc-Glu(OBzl)-Ala-Arg-AMC assessed as AMC release preincubated for 15 mins followed by substrate addition and measured after 10 mins by microplate fluorescence reader analysis
T1 sequence (P03951 19-387 limits assumed): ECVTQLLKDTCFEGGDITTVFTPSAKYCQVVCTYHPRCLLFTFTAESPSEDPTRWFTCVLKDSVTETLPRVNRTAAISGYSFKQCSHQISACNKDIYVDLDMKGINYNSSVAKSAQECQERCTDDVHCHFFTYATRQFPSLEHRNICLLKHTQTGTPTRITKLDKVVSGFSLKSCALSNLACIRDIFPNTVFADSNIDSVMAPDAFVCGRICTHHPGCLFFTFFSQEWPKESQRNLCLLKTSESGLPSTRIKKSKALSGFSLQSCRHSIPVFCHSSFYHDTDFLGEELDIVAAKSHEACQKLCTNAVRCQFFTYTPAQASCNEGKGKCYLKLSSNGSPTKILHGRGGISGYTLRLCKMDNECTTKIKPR
T1 sequence (P03951 388-625 limits assumed): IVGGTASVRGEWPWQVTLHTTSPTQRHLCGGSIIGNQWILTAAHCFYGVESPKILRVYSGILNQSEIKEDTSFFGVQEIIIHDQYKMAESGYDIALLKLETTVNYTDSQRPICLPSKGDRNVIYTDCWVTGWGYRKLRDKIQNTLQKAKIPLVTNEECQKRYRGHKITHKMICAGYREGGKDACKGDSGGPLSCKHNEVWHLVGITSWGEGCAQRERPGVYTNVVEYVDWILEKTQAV

[2] = molecular target: T2, Plasma kallikrein (Homo sapiens, UniProt P03952); test: Inhibition of human PKa using H-Pro-Phe-Arg-AMC as substrate incubated for 15 mins by fluorescence reader analysis
T2 sequence (P03952 20-390 limits assumed): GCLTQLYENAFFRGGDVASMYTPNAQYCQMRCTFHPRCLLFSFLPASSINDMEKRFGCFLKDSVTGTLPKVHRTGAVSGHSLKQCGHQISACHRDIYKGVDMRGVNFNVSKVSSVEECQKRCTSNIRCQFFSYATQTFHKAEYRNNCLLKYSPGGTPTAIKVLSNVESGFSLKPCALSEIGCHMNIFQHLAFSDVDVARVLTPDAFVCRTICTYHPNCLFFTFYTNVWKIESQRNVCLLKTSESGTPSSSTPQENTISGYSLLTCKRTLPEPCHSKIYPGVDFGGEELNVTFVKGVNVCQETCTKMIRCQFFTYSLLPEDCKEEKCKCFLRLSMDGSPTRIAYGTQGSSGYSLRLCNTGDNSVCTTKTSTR
T2 sequence (P03952 391-638 limits assumed): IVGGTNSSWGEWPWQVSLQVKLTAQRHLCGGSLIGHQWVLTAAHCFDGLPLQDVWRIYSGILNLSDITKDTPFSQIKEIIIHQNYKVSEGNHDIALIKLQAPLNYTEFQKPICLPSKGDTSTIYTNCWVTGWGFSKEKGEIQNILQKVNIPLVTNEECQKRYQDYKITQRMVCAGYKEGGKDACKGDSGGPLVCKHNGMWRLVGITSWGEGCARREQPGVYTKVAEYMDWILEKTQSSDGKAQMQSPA

[3] = molecular target: Coagulation factor X (Homo sapiens, UniProt P00742); test: Inhibition of human Factor Xa using Boc-Ile-Glu-Gly-Arg-AMC as substrate incubated for 15 mins by fluorescence reader analysis
Sequence of Coagulation factor X (P00742 41-179 limits assumed): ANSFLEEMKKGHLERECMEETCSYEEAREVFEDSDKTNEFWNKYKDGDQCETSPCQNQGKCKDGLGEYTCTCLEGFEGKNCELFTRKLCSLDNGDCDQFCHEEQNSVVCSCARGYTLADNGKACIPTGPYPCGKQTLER
Sequence of Coagulation factor X (P00742 235-488 limits assumed): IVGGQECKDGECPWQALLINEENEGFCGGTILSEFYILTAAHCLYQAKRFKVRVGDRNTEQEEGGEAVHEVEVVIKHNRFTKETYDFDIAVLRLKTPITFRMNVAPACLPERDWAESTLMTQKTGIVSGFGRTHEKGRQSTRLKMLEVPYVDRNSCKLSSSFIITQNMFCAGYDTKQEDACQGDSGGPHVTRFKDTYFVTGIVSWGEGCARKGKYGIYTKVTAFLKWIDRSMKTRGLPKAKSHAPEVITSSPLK

[4] = molecular target: Prothrombin (Homo sapiens, UniProt P00734); test: Inhibition of human thrombin using Boc-Asp(OBzl)-Pro-Arg-AMC as substrate incubated for 15 mins by fluorescence reader analysis
[5] = molecular target: Trypsin (Homo sapiens, UniProt P07477+P07478+P35030); test: Inhibition of human trypsin using Boc-Ile-Glu-Gly-Arg-AMC as substrate incubated for 15 mins by fluorescence reader analysis; type: protein assay
[6] = tested on: Plasma; test: Anticoagulant activity in citrated human pooled plasma assessed as prolongation of activated partial thromboplastin time incubated for 5 mins by aPTT reagent based semi-automated coagulometric analysis; type: functional
[7] = tested on: Plasma; test: Anticoagulant activity in citrated human pooled plasma assessed as prolongation of prothrombin time incubated for 3 mins by PT reagent based semi-automated coagulometric analysis; type: functional; conditions: 0.05 h
[8] = molecular target: T1, Coagulation factor XI; test: Inhibition of Factor XIa (unknown origin)
[9] = molecular target: T2, Plasma kallikrein; test: Inhibition of Pka (unknown origin)

Row | SMILES | IC50 [1] | IC50 [2] | further results
1 | CC[C@@H](c1cn(-c2ccc(C(=O)OC)cc2)nn1)n1cc(OC)c(-c2cc(Cl)ccc2-n2cc(Cl)nn2)cc1=O | 0.032 µM | 0.643 µM | IC50 [3]: 4.2 µM; IC50 [4]: 67.7 µM; IC50 [5]: 82.9 µM; EC1.5 [6]: 13.2 µM; EC2 [7]: >100 µM
2 | CCC(c1cn(-c2ccccc2C(=O)OC)nn1)n1cc(OC)c(-c2cc(Cl)ccc2-n2cc(Cl)nn2)cc1=O (configuration not stated) | 1.96 µM | 4.84 µM | 
3 | CCC(c1cn(-c2cnn(C)c2)nn1)n1cc(OC)c(-c2cc(Cl)ccc2-n2cc(Cl)nn2)cc1=O (configuration not stated) | 0.609 µM | 6.52 µM | 
4 | COc1cn(C(Cc2ccccc2)c2cn(-c3ccccc3)nn2)c(=O)cc1-c1cc(Cl)ccc1-n1cc(Cl)nn1 (configuration not stated) | 0.0309 µM | 0.501 µM | 
5 | CC[C@H](c1cn(-c2ccc(C(=O)OC)cc2)nn1)n1cc(OC)c(-c2cc(Cl)ccc2-n2cc(Cl)nn2)cc1=O | 1.1 µM | 7.85 µM | IC50 [3]: 101 µM; IC50 [5]: > 100 µM; EC1.5 [6]: 392 µM; EC2 [7]: >100 µM
6 | COc1cn(C(Cc2ccccc2)c2cn(-c3ccccc3)nn2)c(=O)cc1-c1cc(Cl)ccc1-n1cc(C(F)(F)F)nn1 (configuration not stated) | 0.0309 µM | 0.746 µM | 
7 | COC(=O)c1ccc(-n2cc(Cn3cc(OC)c(-c4cc(Cl)ccc4-n4cc(Cl)nn4)cc3=O)nn2)cc1 | 0.161 µM | 1.97 µM | 
8 | COc1cn(C(Cc2ccccc2)c2cn(-c3cn[nH]c3)nn2)c(=O)cc1-c1cc(Cl)ccc1-n1cc(Cl)nn1 (configuration not stated) | 0.0214 µM | 0.683 µM | EC1.5 [6]: 2.64 µM; EC2 [7]: >100 µM
9 | CC[C@@H](C(=O)Nc1ccc(C(N)=O)c(F)c1)n1cc(OC)c(-c2cc(Cl)ccc2-n2cc(C(F)(F)F)nn2)cc1=O |  |  | IC50 [3]: 7.21 µM; IC50 [4]: 6.27 µM; IC50 [5]: 4.05 µM; EC1.5 [6]: 0.71 µM; EC2 [7]: >100 µM
10 | CCC(c1cn(-c2ccc(C(=O)OC)cc2)nn1)n1cc(OC)c(-c2cc(Cl)ccc2-n2cc(Cl)nn2)cc1=O (configuration not stated) | 0.373 µM | 1.49 µM | 
11 | COC(=O)c1ncccc1-n1cc(Cn2cc(OC)c(-c3cc(Cl)ccc3-n3cc(Cl)nn3)cc2=O)nn1 | 2 µM | 19.7 µM | 
12 | COc1cn(Cc2cn(-c3cccnc3C)nn2)c(=O)cc1-c1cc(Cl)ccc1-n1cc(Cl)nn1 | 1.24 µM | 14.4 µM | 
13 | CCC(c1cn(-c2cccc(C(=O)OC)c2)nn1)n1cc(OC)c(-c2cc(Cl)ccc2-n2cc(Cl)nn2)cc1=O (configuration not stated) | 1.6 µM | 2.14 µM | 
14 | COC(=O)c1ccccc1-n1cc(Cn2cc(OC)c(-c3cc(Cl)ccc3-n3cc(Cl)nn3)cc2=O)nn1 | 1.66 µM | 11.5 µM | 
15 | CCC(c1cn(-c2cn[nH]c2)nn1)n1cc(OC)c(-c2cc(Cl)ccc2-n2cc(Cl)nn2)cc1=O (configuration not stated) | 0.379 µM | 2.51 µM | 
16 | CCC(c1ccc2cc(C(=O)O)ccc2c1)n1cc(OC)c(-c2cc(Cl)ccc2-n2cc(C(F)(F)F)nn2)cc1=O (configuration not stated) |  |  | IC50 [8]: 0.0866 µM; IC50 [9]: 0.258 µM
17 | COc1cn(Cc2cn(-c3cccc(C(=O)O)c3)nn2)c(=O)cc1-c1cc(Cl)ccc1-n1cc(Cl)nn1 | 0.0787 µM | 0.412 µM | 
18 | COC(=O)c1cccc(-n2cc(Cn3cc(OC)c(-c4cc(Cl)ccc4-n4cc(Cl)nn4)cc3=O)nn2)c1 | 0.519 µM | 1.06 µM | 
19 | COc1ccc(-n2cc(Cn3cc(OC)c(-c4cc(Cl)ccc4-n4cc(Cl)nn4)cc3=O)nn2)c(C)n1 | 0.917 µM | 15.8 µM | 
20 | CCC(c1cn(-c2ccc(C(=O)O)cc2)nn1)n1cc(OC)c(-c2cc(Cl)ccc2-n2cc(Cl)nn2)cc1=O (configuration not stated) | 0.0845 µM | 0.655 µM | IC50 [3]: 17.4 µM; IC50 [5]: 93.1 µM; EC1.5 [6]: 25.4 µM; EC2 [7]: >100 µM
21 | CCC(c1cn(-c2ccccc2)nn1)n1cnc(-c2cc(Cl)ccc2-n2cc(Cl)nn2)cc1=O (configuration not stated) | 6.34 µM | 47.2 µM | 
22 | COc1cn(Cc2cn(-c3ccccc3)nn2)c(=O)cc1-c1cc(Cl)ccc1-n1cc(Cl)nn1 | 0.0781 µM | 0.766 µM | 
